Measured values taken from patent US20250152610A1, “IMIDAZOLATE GOLD COMPOUNDS FOR THE TREATMENT OF LUNG CANCER” (University of Cincinnati, priority 2022, published 2025).

Tests used:
[1] = test system: KRAS-WT lung cancer cells (H1395, H522, H661, H1993, H332, H820) versus KM lung cancer cells (H157, H1264, H2122, H460, A549); assay: MTT cell viability assay on panel of KRAS-WT and KM lung cancer cell lines; assay type: cell-based, human; settings: 1 nM to 100 μM; FIGS. 3A-3F; unpaired t test
Description: Experiments were carried out to determine whether DM20 and CS47 are reversible TrxR inhibitors capable of triggering ferroptosis in KRAS-WT lung cancer cells. DM20 and CS47 in concentrations ranging from 1 nM to 100 μM were tested on a panel of KM and KRAS-WT cell lines in MTT cell viability assays. The tested KM cell lines included H157, H1264, H2122, H460, and A549 cells. The tested KRAS-WT cell lines included H1395, H522, H661, H1993, H332, and H820. Auranofin was included as a positive drug control and the human lung […] fibroblast cell line IMR90 was included as a normal, non-transformed cell counterpart. MTT viability and IC50 values were determined, results for which are shown in FIGS. 3A-3F, wherein each line or symbol corresponds to a human […] cell line. Statistics indicate unpaired t test with *, p<0.05, and **, p<0.01.

[2] = test system: GPX4; settings: H522 KRAS-WT and A546 KM cells, 10 μM, 48 hours; FIG. 5A
Description: H522 KRAS-WT lung cancer cells and A546 KM lung cancer cells were treated with vehicle (negative control), DM20 (10 μM), CS47 (10 μM), and auranofin (1 μM, positive control) for 48 hours. Protein lysates were extracted from the cells and Western blot analysis was carried out to detect expression of TXNRD1 and GPX4 in the cell lines after treatment, with GAPDH expression detected as a control.

[3] = test system: H193 and H1395 KRAS-WT lung cancer cells; settings: for lipid peroxidation (oxidized C11-BODIPY) in KRAS-WT cells: 10 μM, 48 hours, FIG. 5B; for ferroptosis induction in KRAS-WT lung cancer cells (overall conclusion): taken together from Examples 1-4
Description: H157 and A549 KM lung cancer cells and H193 and H1395 KRAS-WT lung cancer cells were treated with vehicle (negative control), DM20 (10 μM), CS47 (10 μM), or auranofin (1 μM positive control) for 48 hours. Cells were then stained with DAP, oxidized C11-BODIPY, and reduced C11-BODIPY. C11-BODIPY is a ferroptosis lipid sensor that switches from red to green fluorescence upon oxidation.

[4] = test system: H522 KRAS-WT lung cancer cells; assay: MTT cell viability rescue with ferrostatin-1, L-cysteine or NAC; assay type: cell-based, human; settings: 48 hours, DM20 10 μM, CS47 10 uM, auranofin 1 μM; for rescue of cell viability by ferrostatin-1 (Fer-1): FIG. 4A; for rescue of cell viability by cysteine: FIG. 4B; for rescue of cell viability by n-acetyl-cysteine (NAC): FIG. 4C
Description: H522 KRAS-WT lung cancer cells were treated with DM20 (10 μM), CS47 (10 uM), or auranofin (1 μM) in combination with ferrostatin-1, L-cysteine, or n-acetyl-cysteine (all mM, 48 hours of treatment, in quadruplicate). Statistics indicate one-way ANOVA followed by Sidak's multiple comparisons analysis with ns, p>0.05; *, p<0.05: **, p<0.01; ***, p<0.001 and ****, p<0.0001.

Structure (SMILES) | sensitivity of KRAS-WT lung cancer cells compared with KM lung cancer cells (MTT viability, IC50) [1] | GPX4 expression after treatment (Western blot) [2] | lipid peroxidation (oxidized C11-BODIPY) in KRAS-WT cells [3] | ferroptosis induction in KRAS-WT lung cancer cells (overall conclusion) [3] | rescue of cell viability by ferrostatin-1 (Fer-1) [4] | rescue of cell viability by cysteine [4] | rescue of cell viability by n-acetyl-cysteine (NAC) [4]
Clc1nc[n]([Au][PH](c2ccccc2)(c2ccccc2)c2ccccc2)c1Cl [CS47, 4,5-dichloro-imidazolate-1yl-gold(I)-triphenylphosphane] | significantly and selectively more sensitive | depletes GPX4 expression | induces lipid peroxidation | induce ferroptosis | can rescue the cell viability | can rescue the cell viability | can rescue the cell viability
N#Cc1nc[n]([Au][PH](c2ccccc2)(c2ccccc2)c2ccccc2)c1C#N [DM20, 4,5-dicyano-imidazolate-1yl-gold(I)-triphenylphosphane] | significantly and selectively more sensitive | depletes GPX4 expression | induces lipid peroxidation | induce ferroptosis | can rescue the cell viability | can rescue the cell viability | can rescue the cell viability
CC(=O)OC[C@H]1O[C@@H]([S-])[C@H](OC(C)=O)[C@@H](OC(C)=O)[C@@H]1OC(C)=O.CCP(CC)CC.[Au+] [auranofin, reference compound] | significantly and selectively more sensitive | – | – | – | can rescue the cell viability | can rescue the cell viability | can rescue the cell viability
